We go through ten compounds from paper PMC7757739 (Chemical research in toxicology, 2019).

The structures appear in SMILES notation. Several values for one entry are separate records, joined by “and”; a condition that tells them apart may be missing. Equal entries are not always repeated. Where two headings read alike, the source gives them in different places.

The subject of series [1] is AhR. The following applies: mice or mouse cells; ref [34], [35], [76]; cited from earlier work.
Series [2] concerns the target AhR (Homo sapiens, UniProt P35869). The series is classed as cell-based. The following applies: HG2L7.5c1 cells, 6h, Figure 4.
For the next series, the target named is T1, human AhR (Homo sapiens, UniProt P35869).
T1 sequence (P35869 11-848): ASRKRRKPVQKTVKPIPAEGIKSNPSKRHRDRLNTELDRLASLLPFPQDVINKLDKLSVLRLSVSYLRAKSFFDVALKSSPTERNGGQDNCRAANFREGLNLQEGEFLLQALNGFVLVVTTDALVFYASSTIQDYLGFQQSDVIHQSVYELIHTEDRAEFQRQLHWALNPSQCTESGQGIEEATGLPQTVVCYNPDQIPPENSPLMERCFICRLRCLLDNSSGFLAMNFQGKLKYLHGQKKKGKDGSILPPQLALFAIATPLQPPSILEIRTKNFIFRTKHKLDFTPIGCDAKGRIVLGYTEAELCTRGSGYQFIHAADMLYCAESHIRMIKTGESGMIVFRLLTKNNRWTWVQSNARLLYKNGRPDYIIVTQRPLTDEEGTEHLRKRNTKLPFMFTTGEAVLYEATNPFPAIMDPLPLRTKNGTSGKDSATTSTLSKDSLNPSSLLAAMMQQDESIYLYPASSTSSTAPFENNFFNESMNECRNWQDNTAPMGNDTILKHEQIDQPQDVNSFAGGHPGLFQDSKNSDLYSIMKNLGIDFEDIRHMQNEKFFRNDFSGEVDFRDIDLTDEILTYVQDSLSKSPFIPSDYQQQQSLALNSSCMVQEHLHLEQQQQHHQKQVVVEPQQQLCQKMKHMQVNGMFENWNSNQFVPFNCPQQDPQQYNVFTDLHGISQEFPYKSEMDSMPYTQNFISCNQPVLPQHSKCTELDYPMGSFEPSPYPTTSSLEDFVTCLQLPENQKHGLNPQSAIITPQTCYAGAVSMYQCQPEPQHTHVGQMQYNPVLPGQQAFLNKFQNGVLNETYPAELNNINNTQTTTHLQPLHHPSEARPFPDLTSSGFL
Description: AhR-responsive luciferase reporter gene induction in recombinant human hepatoma. As to conditions: for AhR-dependent reporter gene activity (efficacy), in words: Figure 3; for potency relative to TCDD, in words / increased potency compared to tryptanthrin (3): 6h.

For series [3], the system named is AhR. The following applies: ref [37]; cited from earlier work.
The target in series [4] is T2, mouse AhR (Mus musculus, UniProt P30561). As to conditions: mouse H1L7.5c3 cells.
Series [5] addresses T2, mouse AhR. Briefly: cell-based.

T2 sequence (P30561 10-805 limits assumed): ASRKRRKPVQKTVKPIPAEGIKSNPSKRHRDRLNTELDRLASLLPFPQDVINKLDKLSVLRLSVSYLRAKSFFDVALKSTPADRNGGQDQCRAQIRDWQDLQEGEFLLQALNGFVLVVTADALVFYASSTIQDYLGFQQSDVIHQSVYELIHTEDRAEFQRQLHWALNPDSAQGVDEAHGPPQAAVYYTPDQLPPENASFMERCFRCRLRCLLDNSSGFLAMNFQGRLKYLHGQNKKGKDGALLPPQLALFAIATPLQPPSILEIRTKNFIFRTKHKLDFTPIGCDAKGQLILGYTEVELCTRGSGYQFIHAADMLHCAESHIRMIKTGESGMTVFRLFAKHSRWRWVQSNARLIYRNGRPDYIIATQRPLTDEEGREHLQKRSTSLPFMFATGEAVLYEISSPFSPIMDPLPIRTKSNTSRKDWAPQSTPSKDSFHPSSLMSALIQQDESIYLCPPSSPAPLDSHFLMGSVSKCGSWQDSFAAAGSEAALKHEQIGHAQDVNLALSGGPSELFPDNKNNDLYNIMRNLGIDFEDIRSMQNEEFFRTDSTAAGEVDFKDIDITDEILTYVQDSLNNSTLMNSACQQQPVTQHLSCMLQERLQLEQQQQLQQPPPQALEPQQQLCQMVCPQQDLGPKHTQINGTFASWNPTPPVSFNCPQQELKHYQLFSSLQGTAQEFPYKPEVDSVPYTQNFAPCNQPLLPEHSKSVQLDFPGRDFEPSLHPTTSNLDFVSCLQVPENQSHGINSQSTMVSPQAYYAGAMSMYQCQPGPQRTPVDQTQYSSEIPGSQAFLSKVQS
T2 sequence (P11499 whole entry partner): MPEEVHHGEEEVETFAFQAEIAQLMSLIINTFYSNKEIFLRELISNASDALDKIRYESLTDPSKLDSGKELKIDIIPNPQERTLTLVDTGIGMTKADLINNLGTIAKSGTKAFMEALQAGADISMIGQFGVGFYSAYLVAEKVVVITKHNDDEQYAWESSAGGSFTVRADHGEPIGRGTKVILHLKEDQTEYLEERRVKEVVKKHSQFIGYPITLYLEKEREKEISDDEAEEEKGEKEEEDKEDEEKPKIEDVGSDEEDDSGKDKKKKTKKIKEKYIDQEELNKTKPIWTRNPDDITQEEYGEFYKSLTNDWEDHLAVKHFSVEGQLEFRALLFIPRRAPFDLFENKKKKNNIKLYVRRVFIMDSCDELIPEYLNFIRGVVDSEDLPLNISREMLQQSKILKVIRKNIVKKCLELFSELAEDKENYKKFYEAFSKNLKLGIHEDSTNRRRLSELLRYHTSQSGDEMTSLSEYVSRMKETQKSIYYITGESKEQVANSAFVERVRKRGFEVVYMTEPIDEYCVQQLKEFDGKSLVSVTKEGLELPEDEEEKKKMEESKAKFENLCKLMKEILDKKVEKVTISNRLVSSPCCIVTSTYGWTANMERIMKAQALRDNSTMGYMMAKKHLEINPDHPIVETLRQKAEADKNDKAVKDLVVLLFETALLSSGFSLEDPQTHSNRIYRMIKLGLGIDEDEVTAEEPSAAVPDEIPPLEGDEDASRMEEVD
T2 sequence (O08915 whole entry partner): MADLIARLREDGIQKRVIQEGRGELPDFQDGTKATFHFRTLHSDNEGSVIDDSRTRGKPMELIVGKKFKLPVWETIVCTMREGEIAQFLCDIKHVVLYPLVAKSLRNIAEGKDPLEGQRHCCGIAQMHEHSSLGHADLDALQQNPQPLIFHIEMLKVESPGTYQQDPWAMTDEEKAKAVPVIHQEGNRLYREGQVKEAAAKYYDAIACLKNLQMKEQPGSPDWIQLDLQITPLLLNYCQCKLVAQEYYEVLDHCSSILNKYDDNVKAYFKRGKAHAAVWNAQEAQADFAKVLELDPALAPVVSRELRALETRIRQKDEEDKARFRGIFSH

On to `O=C1Nc2ccccc2/C1=C1/Nc2ccccc2C1=O` [compound 2, Indirubin], for which, in the series on AhR [1], the “less potent than TCDD” value is ~ 100.

Take `CC(C)n1cnc2c(NCCc3ccc(O)cc3)nc(-c3csc4ccccc34)nc21` [StemRegenin1]: the “inhibition of TCDD-dependent induction of luciferase reporter gene expression” value at AhR [2] is “inhibit”.

For `O=C(O)Cc1ccc2c(c1)-n1c(nc3cc(CC(=O)O)ccc3c1=O)C2=O` [3g, 3,9-dicarboxymethylotryptanthrin], the “AhR-dependent reporter gene activity (efficacy), in words” value (shortened to “AhR-dependent reporter gene activity”) at human AhR (human cells) was “completely inactive”.

Turning to `O=C1Nc2cc(Br)ccc2/C1=C1/Nc2cc(Br)ccc2C1=O` [2f, 6,6’-dibromoindirubin], the “potency relative to TCDD, in words” value on human AhR (human HG2L7.5c1 cells) is given as “comparable to or greater than TCDD”.

On to `Cc1ccccc1N=Nc1ccc(NC(=O)c2ccnn2C)c(C)c1` [CH223191], for which, on AhR [2], the “inhibition of TCDD-dependent induction of luciferase reporter gene expression” value is listed as “inhibit”. In addition, in the series on AhR [3], the “effect of antagonist on AhR activation by indirubin” value is “little effect”; the “effect of antagonist on ability of TCDD to bind to and activate the AhR” value was “effectively inhibit”.

One may read the EC50 as the concentration needed to bring the measured effect to its halfway point. For the compound `O=C1c2ccc(Br)cc2-n2c1nc1cc(Br)ccc1c2=O` [3f, 3,9-dibromotryptanthrin], on human AhR (human HG2L7.5c1 cells), the “increased potency compared to tryptanthrin (3)” value was determined as 350 fold and the “potency relative to TCDD, in words” value is reported as “comparable to the potency of TCDD”. Also, the “potency relative to TCDD, in words” value on human AhR (human HG2L7.5c1 cells, listed as 3,9-dibromotryptanthrin) is on record as “equipotent”. On human AhR (human HG2L7.5c1 cells, evaluated at 6h), the 50% effective concentration (EC50) is 0.5 nM. On human AhR (human cells), the “AhR-dependent reporter gene activity” value was “induced maximal AhR-dependent reporter gene activity”. Besides, the “times less potent than TCDD” value on mouse AhR [4] is 4,000 fold and ~ 4,000 fold.

On to `O=C1c2ccccc2-n2c1nc1cc(Br)ccc1c2=O` [3h, 3-bromotryptanthrin], for which, at human AhR (human HG2L7.5c1 cells), the “times more potent than TCDD” value stood at 10 fold and the “increased potency compared to tryptanthrin (3)” value is recorded as 3,000 fold. Moreover, the “AhR-dependent reporter gene activity” value at human AhR (human cells) is listed as “comparable to that produced by a maximally inducing concentration of TCDD”. For the same compound, the “times less potent than TCDD” value at mouse AhR [4] was 10,000 fold. Moreover, the “times less potent than TCDD” value at mouse AhR [4] (listed as 3-bromotryptanthrin) is on record as > 10,000 fold.

In the case of `O=C1Nc2ccc(Cl)cc2C1=C1Nc2ccc(Cl)cc2C1=O` [2b, 5,5’-dichloroindirubin], the “potency relative to TCDD, in words” value on human AhR (human HG2L7.5c1 cells) is listed as “comparable to or greater than TCDD”.

In the case of `O=C1c2ccccc2-n2c1nc1ccccc1c2=O` [compound 3, Tryptanthrin], the EC50 on mouse AhR [5] amounted to 810 nM; at human AhR it was 170 nM.

For the compound `Clc1cc2c(cc1Cl)Oc1cc(Cl)c(Cl)cc1O2` [TCDD, 2,3,7,8-tetrachlorodibenzo-p-dioxin, reference compound], the half-maximal effective concentration (EC50) on mouse AhR [5] is 0.1 nM; on human AhR (EC50 for gene induction at 24h of incubation, human cells, 24h incubation), 0.3 nM.
